Laboratory results published in patent US8097722B2 (priority 2008, dated 2012).

What was measured:
Format in all cases: biochemical, porcine
brain PMPMEase = tested on: brain PMPMEase
liver PMPMEase = tested on: liver PMPMEase
Purified PMPMEase = molecular target: T1, Purified PMPMEase (Sus scrofa, UniProt Q29550)
T1 construct: from tissue; host or cells: porcine liver supernatant, purified by column chromatography
T1 sequence (Q29550 19-566): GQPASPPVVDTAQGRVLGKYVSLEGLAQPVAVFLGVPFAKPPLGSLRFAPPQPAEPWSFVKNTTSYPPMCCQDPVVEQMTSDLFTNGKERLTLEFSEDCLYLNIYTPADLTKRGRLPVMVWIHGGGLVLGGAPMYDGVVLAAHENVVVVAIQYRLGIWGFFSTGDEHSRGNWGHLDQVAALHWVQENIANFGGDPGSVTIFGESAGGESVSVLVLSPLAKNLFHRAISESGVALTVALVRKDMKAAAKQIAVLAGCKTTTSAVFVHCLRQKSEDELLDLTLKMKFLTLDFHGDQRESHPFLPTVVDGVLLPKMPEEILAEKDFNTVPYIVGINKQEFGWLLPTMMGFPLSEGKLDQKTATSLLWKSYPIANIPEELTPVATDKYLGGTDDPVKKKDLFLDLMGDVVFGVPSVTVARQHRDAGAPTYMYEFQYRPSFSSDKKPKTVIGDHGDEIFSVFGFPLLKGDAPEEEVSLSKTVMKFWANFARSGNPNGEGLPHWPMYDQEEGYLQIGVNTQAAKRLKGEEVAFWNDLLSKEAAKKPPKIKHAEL

| Compound | Brain Mean (mean percent inhibition relative to the controls) (brain PMPMEase) | Liver Mean (mean percent inhibition relative to the controls) (liver PMPMEase) | Residual activity (% of Control, SEM, n = 3) 0.01 mM (Purified PMPMEase) | Residual activity (% of Control, SEM, n = 3) 1 mM (Purified PMPMEase) |
| --- | --- | --- | --- | --- |
| CCOC(=O)CC(SP(=O)(OC)OC)C(=O)OCC (centres unmarked) [Malaoxon] | 51% | 87% |  |  |
| CNC(=O)CSP(=S)(OC)OC [Dimethoate] |  | 12% |  |  |
| COC(=O)NS(=O)(=O)c1ccc(N)cc1 [Asulam] |  |  | 113 ± 6.3 % of Control | 91.7 ± 6.9 % of Control |
| CCCSP(=O)(OCC)Oc1ccc(Br)cc1Cl (centres unmarked) [Profenofos] | 81% | 97% |  |  |
| CCOP(=S)(OCC)SC1OCCOC1SP(=S)(OCC)OCC (centres unmarked) [Dioxathion] | 15% | 57% |  |  |
| CCOP(=S)(OCC)Oc1ccc2c(C)c(Cl)c(=O)oc2c1 [Coumaphos] | 62% | 46% |  |  |
| CCOP(=S)(OCC)SC(CCl)N1C(=O)c2ccccc2C1=O (centres unmarked) [Dialifos] | 52% | 96% |  |  |
| CCOP(=S)(OCC)SCSC(C)(C)C [Terbufos] | 100% | 72% |  |  |
| COP(=S)(Oc1cc(Cl)c(Br)cc1Cl)c1ccccc1 (centres unmarked) [Leptophos] | 29% | 60% |  |  |
| CCSCCSP(=O)(OC)OC [Demeton-S-M] | 31% | 12% |  |  |
| CCOP(=O)(NC(C)C)Oc1ccc(SC)c(C)c1 (centres unmarked) [Phenamiphos] |  | 92% |  |  |
| COP(=S)(OC)Oc1cc(Cl)c(I)cc1Cl [Jodfenphos] | 69% | 96% |  |  |
| COP(=S)(OC)Oc1ccc(S(=O)(=O)N(C)C)cc1 [Famphur] | 60% | 71% |  |  |
| COP(=S)(Oc1ccc(C#N)cc1)c1ccccc1 (centres unmarked) [Cyamophenphos] | 52% | 53% |  |  |
| Edifenphos | 81% | 97% |  |  |
| COP(=O)(OC)OC=C(Cl)Cl [Dichlorvos] | 81% | 83% |  |  |
| CCOP(=S)(OCC)Oc1cc(C)nc(C(C)C)n1 [Diazinon] | 31% | 95% |  |  |
| Dicrotophos |  | 56% |  |  |
| Trichlorfon | 100% | 91% |  |  |
| CCOP(=S)(OCC)Oc1cc(Cl)c(Br)cc1Cl [Bromophos-E] | 68% | 76% |  |  |

| Compound | Brain Mean (mean percent inhibition relative to the controls) (brain PMPMEase) | Liver Mean (mean percent inhibition relative to the controls) (liver PMPMEase) | Residual activity (% of Control, SEM, n = 3) 0.01 mM (Purified PMPMEase) | Residual activity (% of Control, SEM, n = 3) 1 mM (Purified PMPMEase) |
| --- | --- | --- | --- | --- |
| Heptenophos | 71% | 96% |  |  |
| COP(=S)(OC)Oc1ccc(SC)c(C)c1 [Fenthion] | 17% | 40% |  |  |
| CCOP(=S)(OCC)ON=C(C#N)c1ccccc1Cl [Chlorphoxim] | 55% | 100% |  |  |
| Monocrotophos | 30% | 18% |  |  |
| CCOP(=S)(OCC)SCSP(=S)(OCC)OCC [Ethion] | NO INHIBITION | 92% |  |  |
| CCOP(=S)(OCC)SCSc1ccc(Cl)cc1 [Carbophenothion] | 55% | 49% |  |  |
| CCOP(=S)(OCC)Oc1cc(Cl)c(SC)cc1Cl [Chlorthiophos] | 22% | 52% |  |  |
| CCOP(=O)(N=C1SCC(C)S1)OCC (centres unmarked) [Mephosfolan] |  | 100% |  |  |
| CCOC(=O)CC(SP(=S)(OC)OC)C(=O)OCC (centres unmarked) [Malathion] | 51% | 53% |  |  |
| COC(=O)/C(C)=C/OP(=S)(OC)OC [Methacrifos] | 61% | 87% |  |  |
| COP(=O)(OC)O/C(=C/Cl)c1cc(Cl)c(Cl)cc1Cl [Tetrachlorvinphos] | 100% | 91% |  |  |
| Acephate | 50% | NO INHIBITION |  |  |
| COP(=S)(OC)Oc1ccc(C#N)cc1 [Cyanophos] | 65% | 89% |  |  |
| COP(=S)(OC)Oc1ccc([N+](=O)[O-])c(C)c1 [Fenitrothion] | 75% | 98% |  |  |
| CCOP(=S)(OCC)SCn1c(=O)oc2cc(Cl)ccc21 [Phosalone] | 62% | 79% |  |  |
| CCOP(=S)(OCC)Oc1ccc(Cl)cc1Cl [Dichlofenthion] | NO INHIBITION | 56% |  |  |
| CNC(=O)CSP(=O)(OC)OC [Omethoate] | 33% | 12% |  |  |
| CCCSP(=S)(OCC)Oc1ccc(Cl)cc1Cl (centres unmarked) [Tokuthion] | 100% | 76% |  |  |
| CCN(CC)c1nc(C)cc(OP(=S)(OC)OC)n1 [Pirimiphos-M] | 42% | 79% |  |  |
| CCOC(=O)C(SP(=S)(OC)OC)c1ccccc1 (centres unmarked) [Phenthoate] | 55% | 96% |  |  |

| Compound | Brain Mean (mean percent inhibition relative to the controls) (brain PMPMEase) | Liver Mean (mean percent inhibition relative to the controls) (liver PMPMEase) | Residual activity (% of Control, SEM, n = 3) 0.01 mM (Purified PMPMEase) | Residual activity (% of Control, SEM, n = 3) 1 mM (Purified PMPMEase) |
| --- | --- | --- | --- | --- |
| CCCSP(=O)(OCC)Oc1cnn(-c2ccc(Cl)cc2)c1 (centres unmarked) [Pyraclofos] | 82% | 95% |  |  |
| COP(=S)(OC)SCn1nnc2ccccc2c1=O [Azinphos-M] | 73% | 47% |  |  |
| CNC(=O)C(C)SCCSP(=O)(OC)OC (centres unmarked) [Vamidothion] |  | 55% |  |  |
| CCOP(=O)(OCC)SCCSCC [Demeton-S] | 62% | 96% |  |  |
| COP(=S)(OC)Oc1ccc(Sc2ccc(OP(=S)(OC)OC)cc2)cc1 [Abate] | 59% | 80% |  |  |
| CCOP(=S)(OCC)SCCSCC [Disulfoton] | NO INHIBITION | 38% |  |  |
| CCOP(=S)(OCC)OP(=S)(OCC)OCC [Sulfotep] | 47% | 97% |  |  |
| CCN(CC)C(=O)/C(Cl)=C(/C)OP(=O)(OC)OC [Phosphamidon] | 53% | 69% |  |  |
| Prothiofos | 6% | 52% |  |  |
| CCOc1cc(OP(=S)(OC)OC)nc(CC)n1 [Etrimfos] | 78% | 100% |  |  |
| CCOP(=S)(OCC)SCCl [Chlormefos] | 65% | 86% |  |  |
| COP(=S)(OC)Oc1cc(Cl)c(Cl)cc1Cl [Ronnel] | 45% | 93% |  |  |
| COP(N)(=O)SC (centres unmarked) [Methamidophos] | 24% | 45% |  |  |
| CCOP(=S)(OCC)Oc1nc(Cl)c(Cl)cc1Cl [Chlorpyriphos] | 67% | 100% |  |  |
| COC(=O)/C=C(\C)OP(=O)(OC)OC [Phosdrin] | 67% | 70% |  |  |
| CCOP(=S)(OCC)Oc1ccc([S+](C)[O-])cc1 (centres unmarked) [Fensulfothion] | 100% | 100% |  |  |
| CNP(=S)(OC)O/C(C)=C/C(=O)OC(C)C (centres unmarked) [Safrotin] | 52% | 54% |  |  |
| COc1nn(CSP(=S)(OC)OC)c(=O)s1 [Methidathion] | 56% | 78% |  |  |
| COP(=S)(OC)Oc1ccc([N+](=O)[O-])cc1 [Methyl-Parathion] | 75% | 100% |  |  |
